Data taken from patent US20050244490A1, “Dosing methods for beta-D-2',3'-dideoxy-2',3'-didehydro-5-fluorocytidine antiviral therapy” (priority 2003, published 2005).

Columns and labels:
[1] = Comparison to other nucleosides: plasma pharmacokinetics
[2] = system: acutely HIV-1 infected human PBM cells; assay: Median effect / combination index study with Racivir; assay type: cell-based; conditions: Human immunodeficiency virus 1, PBMC, 120 h, Day 5, assays (1), (2), (3)
[3] = pbmc
[4] = human, in vivo
clinical = conditions: in vivo
wild type HIV-RT = biological target: T1, wild type HIV-RT (Human immunodeficiency virus type 1 group M subtype B, UniProt P04585); assay: Ki / Km for wild type HIV-RT; assay type: biochemical, HIV-1
T1 construct: The Ki value for β-D-D4FC-TP for wild type HIV-RT

[5] = system: AZT/3TC-resistant HIV-1 recombinant viruses; assay: microbe, parasite or virus in culture; assay type: cell-based; conditions: Human immunodeficiency virus 1, read-out: Average IC90 for AZT/3TC-R virus
Experimental: A panel of 22 viruses was constructed in the HXB2 background using the Protease and RT sequences from clinical isolates to determine Virco Profiling against recombinant clinical isolates (see FIGS. 7a and 7b). Viruses contained 2 to 17 mutations in RT frequently associated with nucleoside resistance, including: M184V, M41L, D67N, T215Y. IC50 values were determined using a high through-put reporter virus assay.

Compound: O=c1[nH]cnc2c1ncn2[C@H]1CC[C@@H](CO)O1 [DDI, 2′,3′-dideoxyinosine]
- half-life [1]: 1.5 h
- EC50 ([2]; read-out: EC50): 380 nM
- EC90 ([2]; read-out: EC90): 2200 nM
- Intracellular half life [3]: 25 to 40 h
- Intracellular [Nuc-PPP] in patients [4]: <0.5 µM
- Cmax (clinical): 4.2 µM
- Ki (wild type HIV-RT): 80 to 8000 nM
- IC90 [5]: 12600 nM
